Reference: US11358957B2, “Microbiocidal oxadiazole derivatives” (SYNGENTA PARTICIPATIONS AG, priority 2017, dated 2022)

Assays:
[1] = system: Puccinia recondita f. Sp. Tritici; assay: Fungicidal activity against Puccinia recondita f. sp. tritici / wheat / leaf disc preventative (brown rust); format: in vivo; settings: foliar, 200 ppm in the applied formulation, wheat leaf segments cv. Kanzler, preventative (inoculated 1 day after application), compared to untreated, read-out: disease control
Outline: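 Segments of wheat cv. Kanzler on water agar were sprayed with compound and inoculated with spores 1 day later. They were kept at 19 °C, 75% rh and 12 h light/12 h dark. Percent disease control versus untreated was scored 7–9 days after application; compounds were tested at 200 ppm.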

[2] = system: Puccinia recondita f. Sp. Tritici; assay: Fungicidal activity against Puccinia recondita f. sp. tritici / wheat / leaf disc curative (brown rust); format: in vivo; settings: foliar, 24 h, 200 ppm in the applied formulation, wheat leaf segments cv. Kanzler, curative (applied 1 day after inoculation), compared to untreated, read-out: disease control
Procedure: Leaf disks or leaf segments of various plant species are cut from plants grown in a greenhouse. The cut leaf disks or segments are placed in multiwell plates (24-well format) onto water agar. The leaf disks are sprayed with a test solution before (preventative) or after (curative) inoculation. Compounds to be tested are prepared as DMSO solutions (max. 10 mg/mL) which are diluted to the appropriate concentration with 0.025% Tween20 just before spraying. The inoculated leaf disks or segments are incubated under defined conditions (temperature, relative humidity, light, etc.) according to the respective test system. A single evaluation of disease level is carried out 3 to 14 days after inoculation, depending on the pathosystem. Percent disease control relative to the untreated check leaf disks or segments is then calculated. Wheat leaf segments cv. Kanzler are placed on agar in multiwell plates (24-well format). The leaf segments are then inoculated with a spore suspension of the fungus. Plates were stored in darkness at 19C and 75% relative humidity. The formulated test compound diluted in water was applied 1 day after inoculation. The leaf segments were incubated at 19° C. and 75% relative humidity under a light regime of 12 hours light/12 hours darkness in a climate cabinet and the activity of a compound was assessed as percent disease control compared to untreated when an appropriate level of disease damage appears in untreated check leaf segments (6 to 8 days after application). The following compounds at 200 ppm in the applied formulation give at least 80% disease control in this test when compared to untreated control leaf disks under the same conditions, which show extensive disease development.

Phakopsora pachyrhizi = assay: Fungicidal activity against Phakopsora pachyrhizi / soybean / leaf disc preventative (Asian soybean rust); format: in vivo; settings: foliar, 200 ppm in the applied formulation, soybean leaf disks, compared to untreated, read-out: disease control
Procedure: Leaf disks or leaf segments of various plant species are cut from plants grown in a greenhouse. The cut leaf disks or segments are placed in multiwell plates (24-well format) onto water agar. The leaf disks are sprayed with a test solution before (preventative) or after (curative) inoculation. Compounds to be tested are prepared as DMSO solutions (max. 10 mg/mL) which are diluted to the appropriate concentration with 0.025% Tween20 just before spraying. The inoculated leaf disks or segments are incubated under defined conditions (temperature, relative humidity, light, etc.) according to the respective test system. A single evaluation of disease level is carried out 3 to 14 days after inoculation, depending on the pathosystem. Percent disease control relative to the untreated check leaf disks or segments is then calculated. Soybean leaf disks are placed on water agar in multiwell plates (24-well format) and sprayed with the formulated test compound diluted in water. One day after application leaf discs are inoculated by spraying a spore suspension on the lower leaf surface. After an incubation period in a climate cabinet of 24-36 hours in darkness at 20° C. and 75% rh leaf disc are kept at 20° C. with 12 h light/day and 75% rh. The activity of a compound is assessed as percent disease control compared to untreated when an appropriate level of disease damage appears in untreated check leaf disks (12 to 14 days after application). The following compounds at 200 ppm in the applied formulation give at least 80% disease control in this test when compared to untreated control leaf disks under the same conditions, which show extensive disease development.

[3] = system: Glomerella lagenarium (Colletotrichum lagenarium); assay: Fungicidal activity against Glomerella lagenarium (Colletotrichum lagenarium) liquid culture / cucumber / preventative (anthracnose); format: cell-based; settings: Colletotrichum orbiculare; 20 ppm in the applied formulation; liquid culture (PDB), inhibition of growth measured photometrically 3 to 4 days after application; compared to untreated; read-out: disease control
Outline: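 Conidia from cryogenic storage mixed into potato dextrose broth and added to compound in DMSO in microtiter plates. Incubated at 24° C.; growth inhibition read photometrically 3 to 4 days after application. Disease control expressed relative to untreated control, with compound at 20 ppm in the applied formulation.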

CCOC(=O)c1cnn(Cc2ccc(-c3noc(C(F)(F)F)n3)s2)c1 [Compound 1.1, ethyl 1-[[5-[5-(trifluoromethyl)-1,2,4-oxadiazol-3-yl]-2-thienyl]methyl]pyrazole-4-carboxylate]
≥ 80%: pest or weed control at 200 ppm [1] | pest or weed control at 200 ppm [2] | pest or weed control at 200 ppm (Phakopsora pachyrhizi) | inhibition of growth at 20 ppm [3]

COC(=O)c1ncn(Cc2ccc(-c3noc(C(F)(F)F)n3)s2)n1 [Compound 1.6, methyl 1-[[5-[5-(trifluoromethyl)-1,2,4-oxadiazol-3-yl]-2-thienyl]methyl]-1,2,4-triazole-3-carboxylate]
≥ 80%: pest or weed control at 200 ppm [1] | pest or weed control at 200 ppm [2] | pest or weed control at 200 ppm (Phakopsora pachyrhizi) | inhibition of growth at 20 ppm [3]

CN(C)c1ncnn1Cc1ccc(-c2noc(C(F)(F)F)n2)s1 [Compound 1.13, N,N-dimethyl-2-[[5-[5-(trifluoromethyl)-1,2,4-oxadiazol-3-yl]-2-thienyl]methyl]-1,2,4-triazol-3-amine]
≥ 80%: pest or weed control at 200 ppm [1] | pest or weed control at 200 ppm [2] | pest or weed control at 200 ppm (Phakopsora pachyrhizi) | inhibition of growth at 20 ppm [3]

Nc1nc(C(F)F)nn1Cc1ccc(-c2noc(C(F)(F)F)n2)s1 [Compound 1.14, 5-(difluoromethyl)-2-[[5-[5-(trifluoromethyl)-1,2,4-oxadiazol-3-yl]-2-thienyl]methyl]-1,2,4-triazol-3-amine]
≥ 80%: pest or weed control at 200 ppm [1] | pest or weed control at 200 ppm [2] | pest or weed control at 200 ppm (Phakopsora pachyrhizi) | inhibition of growth at 20 ppm [3]

FC(F)(F)c1nc(-c2ccc(Cn3ccnc3)s2)no1 [Compound 1.17, 3-[5-(imidazol-1-ylmethyl)-2-thienyl]-5-(trifluoromethyl)-1,2,4-oxadiazole]
≥ 80%: pest or weed control at 200 ppm [1] | pest or weed control at 200 ppm [2] | pest or weed control at 200 ppm (Phakopsora pachyrhizi) | inhibition of growth at 20 ppm [3]

COCc1nn(Cc2ccc(-c3noc(C(F)(F)F)n3)s2)cc1C(=O)OC [Compound 1.19, methyl 3-(methoxymethyl)-1-[[5-[5-(trifluoromethyl)-1,2,4-oxadiazol-3-yl]-2-thienyl]methyl]pyrazole-4-carboxylate]
≥ 80%: pest or weed control at 200 ppm [1] | pest or weed control at 200 ppm [2] | pest or weed control at 200 ppm (Phakopsora pachyrhizi) | inhibition of growth at 20 ppm [3]

Cc1cc(C)n(Cc2ccc(-c3noc(C(F)(F)F)n3)s2)n1 [Compound 1.21, 3-[5-[(3,5-dimethylpyrazol-1-yl)methyl]-2-thienyl]-5-(trifluoromethyl)-1,2,4-oxadiazole]
≥ 80%: pest or weed control at 200 ppm [1] | pest or weed control at 200 ppm [2] | pest or weed control at 200 ppm (Phakopsora pachyrhizi) | inhibition of growth at 20 ppm [3]

COc1ccc2ncn(Cc3ccc(-c4noc(C(F)(F)F)n4)s3)c2c1 [Compound 1.23, 3-[5-[(6-methoxybenzimidazol-1-yl)methyl]-2-thienyl]-5-(trifluoromethyl)-1,2,4-oxadiazole]
≥ 80%: pest or weed control at 200 ppm [1] | pest or weed control at 200 ppm [2] | pest or weed control at 200 ppm (Phakopsora pachyrhizi) | inhibition of growth at 20 ppm [3]

COc1ccc2c(c1)ncn2Cc1ccc(-c2noc(C(F)(F)F)n2)s1 [Compound 1.24, 3-[5-[(5-methoxybenzimidazol-1-yl)methyl]-2-thienyl]-5-(trifluoromethyl)-1,2,4-oxadiazole]
≥ 80%: pest or weed control at 200 ppm [1] | pest or weed control at 200 ppm [2] | pest or weed control at 200 ppm (Phakopsora pachyrhizi) | inhibition of growth at 20 ppm [3]

FC(F)(F)c1nc(-c2ccc(Cn3cnc4ccccc43)s2)no1 [Compound 1.25, 3-[5-(benzimidazol-1-ylmethyl)-2-thienyl]-5-(trifluoromethyl)-1,2,4-oxadiazole]
≥ 80%: pest or weed control at 200 ppm [1] | pest or weed control at 200 ppm [2] | pest or weed control at 200 ppm (Phakopsora pachyrhizi) | inhibition of growth at 20 ppm [3]

CCOC(=O)c1cnn(C(C)c2ccc(-c3noc(C(F)(F)F)n3)s2)c1 (centres unmarked) [Compound 1.30, ethyl 1-[1-[5-[5-(trifluoromethyl)-1,2,4-oxadiazol-3-yl]-2-thienyl]ethyl]pyrazole-4-carboxylate]
≥ 80%: pest or weed control at 200 ppm [1] | pest or weed control at 200 ppm [2] | pest or weed control at 200 ppm (Phakopsora pachyrhizi) | inhibition of growth at 20 ppm [3]

Cc1cccc(=O)n1C(C)c1ccc(-c2noc(C(F)(F)F)n2)s1 (centres unmarked) [Compound 1.33, 6-methyl-1-[1-[5-[5-(trifluoromethyl)-1,2,4-oxadiazol-3-yl]-2-thienyl]ethyl]pyridin-2-one]
≥ 80%: pest or weed control at 200 ppm [1] | pest or weed control at 200 ppm [2] | pest or weed control at 200 ppm (Phakopsora pachyrhizi) | inhibition of growth at 20 ppm [3]

CC(c1ccc(-c2noc(C(F)(F)F)n2)s1)N1CCCCC1=O (centres unmarked) [Compound 1.34, 1-[1-[5-[5-(trifluoromethyl)-1,2,4-oxadiazol-3-yl]-2-thienyl]ethyl]piperidin-2-one]
≥ 80%: pest or weed control at 200 ppm [1] | pest or weed control at 200 ppm [2] | pest or weed control at 200 ppm (Phakopsora pachyrhizi) | inhibition of growth at 20 ppm [3]

CCOC(=O)c1ncnn1Cc1ccc(-c2noc(C(F)(F)F)n2)s1 [Compound 1.41, ethyl 2-[[5-[5-(trifluoromethyl)-1,2,4-oxadiazol-3-yl]-2-thienyl]methyl]-1,2,4-triazole-3-carboxylate]
≥ 80%: pest or weed control at 200 ppm [1] | pest or weed control at 200 ppm [2] | pest or weed control at 200 ppm (Phakopsora pachyrhizi) | inhibition of growth at 20 ppm [3]

CN(C)C(=O)c1ccnn1Cc1ccc(-c2noc(C(F)(F)F)n2)s1 [Compound 1.58, N,N-dimethyl-2-[[5-[5-(trifluoromethyl)-1,2,4-oxadiazol-3-yl]-2-thienyl]methyl]pyrazole-3-carboxamide]
≥ 80%: pest or weed control at 200 ppm [1] | pest or weed control at 200 ppm [2] | pest or weed control at 200 ppm (Phakopsora pachyrhizi)

CC(C)CNC(=O)c1ccnn1Cc1ccc(-c2noc(C(F)(F)F)n2)s1 [Compound 1.160, N-isobutyl-2-[[5-[5-(trifluoromethyl)-1,2,4-oxadiazol-3-yl]-2-thienyl]methyl]pyrazole-3-carboxamide]
≥ 80%: pest or weed control at 200 ppm [1] | pest or weed control at 200 ppm [2] | inhibition of growth at 20 ppm [3]

CCN(CC)C(=O)c1ccnn1Cc1ccc(-c2noc(C(F)(F)F)n2)s1 [Compound 1.161, N,N-diethyl-2-[[5-[5-(trifluoromethyl)-1,2,4-oxadiazol-3-yl]-2-thienyl]methyl]pyrazole-3-carboxamide]
≥ 80%: pest or weed control at 200 ppm [1] | pest or weed control at 200 ppm [2] | inhibition of growth at 20 ppm [3]

O=C(c1ccnn1Cc1ccc(-c2noc(C(F)(F)F)n2)s1)N1CCOCC1 [Compound 1.166, morpholino-[2-[[5-[5-(trifluoromethyl)-1,2,4-oxadiazol-3-yl]-2-thienyl]methyl]pyrazol-3-yl]methanone]
≥ 80%: pest or weed control at 200 ppm [1] | pest or weed control at 200 ppm [2] | inhibition of growth at 20 ppm [3]

C#CCNC(=O)c1ccnn1Cc1ccc(-c2noc(C(F)(F)F)n2)s1 [Compound 1.168, N-prop-2-ynyl-2-[[5-[5-(trifluoromethyl)-1,2,4-oxadiazol-3-yl]-2-thienyl]methyl]pyrazole-3-carboxamide]
≥ 80%: pest or weed control at 200 ppm [1] | pest or weed control at 200 ppm [2] | inhibition of growth at 20 ppm [3]

CCN(C)C(=O)c1ccnn1Cc1ccc(-c2noc(C(F)(F)F)n2)s1 [Compound 1.169, N-ethyl-N-methyl-2-[[5-[5-(trifluoromethyl)-1,2,4-oxadiazol-3-yl]-2-thienyl]methyl]pyrazole-3-carboxamide]
≥ 80%: pest or weed control at 200 ppm [1] | pest or weed control at 200 ppm [2] | inhibition of growth at 20 ppm [3]
